According to ChEMBL document CHEMBL3045493, “Synthesis and antifungal activity of novel 2,5-disubstituted-1,3,4-oxadiazoles containing benzimidazole moiety” (J Pestic Sci, 2012):
≈ marks a conversion by molar mass, not a printed value.

Legend:
[1] = test system: Sclerotinia sclerotiorum; assay: Antifungal activity against benzimidazole-sensitive Sclerotinia sclerotiorum SS-JSZ01 assessed as inhibition of mycelium growth after 3 days followed by 96 hr incubation in light incubator; type: functional, organism-based
[2] = test system: Botrytis cinerea; assay: Antifungal activity against benzimidazole moderately resistant Botryotinia fuckeliana BC-JfC02 assessed as inhibition of mycelium growth after 3 days followed by 96 hr incubation in light incubator; type: functional, organism-based

Row | Compound | EC50 [1] [mg/L] | EC50 [2] [mg/L]
1 | Fc1ccc(CSc2nnc(-c3nc4ccccc4n3Cc3ccc(F)cc3)o2)cc1 | 7.52 (≈ 17.3 µM) | 13.9 (≈ 32.1 µM)
2 | Fc1ccc(Cn2c(-c3nnc(SCc4ccc(Cl)cc4)o3)nc3ccccc32)cc1 | 0.43 (≈ 0.954 µM) | 6.07 (≈ 13.5 µM)
3 | Fc1ccc(Cn2c(-c3nnc(SCc4ccc(Cl)cc4Cl)o3)nc3ccccc32)cc1 | 0.55 (≈ 1.13 µM) | 7.81 (≈ 16.1 µM)
4 | CC(C)Sc1nnc(-c2nc3ccccc3[nH]2)o1 | 23.4 (≈ 89.8 µM) | 24.1 (≈ 92.8 µM)
5 | CCCCSc1nnc(-c2nc3ccccc3[nH]2)o1 | 9.12 (≈ 33.2 µM) | 9.86 (≈ 35.9 µM)
6 | c1ccc(CSc2nnc(-c3nc4ccccc4[nH]3)o2)cc1 | 22.9 (≈ 74.4 µM) | 18.4 (≈ 59.6 µM)
7 | Fc1ccc(CSc2nnc(-c3nc4ccccc4[nH]3)o2)cc1 | 20.5 (≈ 62.7 µM) | 12.8 (≈ 39.1 µM)
8 | Clc1ccc(CSc2nnc(-c3nc4ccccc4[nH]3)o2)cc1 | 9.1 (≈ 26.5 µM) | 14.8 (≈ 43.3 µM)
9 | Clc1ccc(CSc2nnc(-c3nc4ccccc4[nH]3)o2)c(Cl)c1 | 22.7 (≈ 60.3 µM) | 16.4 (≈ 43.4 µM)
10 | CSc1nnc(-c2nc3ccccc3n2Cc2ccc(F)cc2)o1 | 12.4 (≈ 36.3 µM) | 14 (≈ 41 µM)
11 | CCSc1nnc(-c2nc3ccccc3n2Cc2ccc(F)cc2)o1 | 8.86 (≈ 25 µM) | 3.08 (≈ 8.69 µM)
12 | CCCSc1nnc(-c2nc3ccccc3n2Cc2ccc(F)cc2)o1 | 2.03 (≈ 5.51 µM) | 5.63 (≈ 15.3 µM)
13 | CC(C)Sc1nnc(-c2nc3ccccc3n2Cc2ccc(F)cc2)o1 | 10.2 (≈ 27.5 µM) | 11.4 (≈ 30.9 µM)
14 | CCCCSc1nnc(-c2nc3ccccc3n2Cc2ccc(F)cc2)o1 | 0.94 (≈ 2.46 µM) | 6.26 (≈ 16.4 µM)
15 | Fc1ccc(Cn2c(-c3nnc(SCc4ccccc4)o3)nc3ccccc32)cc1 | 0.04 (≈ 0.096 µM) | 1.31 (≈ 3.15 µM)
16 | CSc1nnc(-c2nc3ccccc3[nH]2)o1 | 2.04 (≈ 8.78 µM) | 10.6 (≈ 45.5 µM)
17 | CCSc1nnc(-c2nc3ccccc3[nH]2)o1 | 1.31 (≈ 5.32 µM) | 2.7 (≈ 11 µM)
18 | CCCSc1nnc(-c2nc3ccccc3[nH]2)o1 | 18.2 (≈ 70 µM) | 16.6 (≈ 63.6 µM)
19 | COC(=O)Nc1nc2ccccc2[nH]1 [CARBENDAZIM] | 0.13 (≈ 0.68 µM) | 7.4 (≈ 38.7 µM)
